# According to paper PMC3454376, “Salidroside Improves Behavioral and Histological Outcomes and Reduces Apoptosis via PI3K/Akt Signaling after Experimental Traumatic Brain Injury” (PLoS ONE, 2012):
# Test system: mice subjected to controlled cortical impact injury
# Assay: Beam walk test after CCI
# Type: in vivo
# Method: All animal procedures were approved by the Animal Research Committee at Cheng Hsin General Hospital (Animal permit number […] 101-08), and all procedures complied with the Guide for the Care and Use of Laboratory Animals published by the US National Institutes of Health (NIH Publication No. 85-23, revised 1996). Animals were housed under a 12-h light/dark cycle and at constant temperature (21-25°C) and humidity (45-50%). They were allowed free access to pellet chow and water. TBI in mice was induced by a CCI injury model as previously described. Briefly, 8-week-old male C57BL/6 mice (weighing 22-25 g) were anesthetized through the use of intraperitoneal injection of sodium pentobarbital (65 mg/kg; Rhone Merieux, Harlow, UK) and placed in a stereotaxic frame. A 5 mm craniotomy was performed over the right parietal cortex, centered on the coronal suture and 0.1 mm lateral to the sagittal suture, and injury to dura was avoided. […] Body temperature was monitored throughout the surgery by a rectal probe; temperature was maintained at 37.0±0.5°C using a heated pad. […] To determine the optimal dose of salidroside, a pilot study was performed using 2 different doses (20 and 50 mg/kg) administered 10 min after injury, and neurological deficits and tissue damage were evaluated as the main outcomes. […]
smiles,measurement,setting,value
"OC[C@H]1O[C@@H](OCCc2ccc(O)cc2)[C@H](O)[C@@H](O)[C@@H]1O [SALD, salidroside]",beam walk latency versus vehicle group,"20 mg/kg ip 10 min after CCI, days 4 and 21, P<0.05 and 0.01",significant difference
same,"beam walk latency, treatment effect versus vehicle","50 mg/kg ip 10 min after CCI, P<0.05",significant only at day 4
